Results published in patent US20260347370A1, “SALT TYPE AND CRYSTAL FORM OF THIENOPYRIMIDINONE DERIVATIVE” (CMS RESEARCH & DEVELOPMENT PTE. LTD., priority 2022, published 2026).
One block for each molecule: values may come before it.

Legend:
[1] = Hygroscopicity study by dynamic vapor sorption (DVS); type: physicochemical; settings: 25 °C/80% RH
Procedure: Instrument model: SMS DVS intrinsic plus dynamic vapor sorption instrument. Detailed DVS parameters are as follows: • Temperature: 25 °C; • Protective gas and flow rate: nitrogen, 200 mL/min; • dm/dt=0.002%/min; • RH (%) test gradient: 10% RH; • Minimum dm/dt balance time: 10 min; • Maximum balance time: 180 min; • Range of RH (%) test gradient: 0% to 95%.
The classification of hygroscopicity evaluation is as follows: • Absorbing enough water and forming a liquid: deliquescence; ΔW %≥15%: very hygroscopic; 15%>ΔW %≥2%: hygroscopic; 2%>ΔW %≥0.2%: slightly hygroscopic; ΔW %<0.2%: Not or almost not hygroscopic. ΔW % represents the weight increase of a test sample by moisture absorption at 25±1 °C and 80±2% RH.
The test was performed using SMS DVS intrinsic plus dynamic vapor sorption instrument.

[2] = Solid stability testing of the crystal form B (influencing factors: high temperature, high humidity, light; accelerated 40 °C/75% RH; long-term 25 °C/60% RH); type: physicochemical
[3] = as above; type: physicochemical; remark: listed apart in the source
Source text: Influencing factor testing: unless otherwise specified, each sample was placed in an open weighing bottle, which was placed in the corresponding storage container to investigate the stability at the time points of 5 and 10 days. The photostability testing complied with the requirements of ICH Q1B: the illuminated sample was exposed to visible light and ultraviolet light; storage conditions: the sample was illuminated at 5000±500 lux (visible light) and 90 μw/cm^2 (UV) for 5 days and 10 days. The total illumination received by the sample after 10 days was not less than 1.2×10^6 Lux·h, and the near-ultraviolet energy was not less than 200 w·h/m^2. The illuminated sample was placed in a clean weighing bottle, and spread out into a single layer without being covered by anything. The weighing bottle was uncovered and placed in an illumination box for illumination. The control sample was packaged in the same way as the illuminated sample, but the weighing bottle was covered with aluminum film. Long-term and accelerated testing: each sample was placed in a double-layer LDPE bag, respectively, and each layer of the LDPE bag was sealed with a buckle. Then, the sample was placed in an aluminum foil bag, which was heat-sealed. The sample was placed for 1, 2 and 3 months in the accelerated testing, and placed for 3 months under the long-term condition. XRPD analysis was performed on all the stability samples to test the changes in the crystal forms.
25 mg of a sample was taken, weighed accurately, and placed in a 10 mL volumetric flask. 6 mL of acetonitrile was added and the sample was dissolved by ultrasound. The mixture was cooled to room temperature, and water was added to the scale marker. The mixture was shaken well, and the sample was dissolved to give a solution with a concentration of approximately 2.5 mg/mL. The liquid phase was used for sample injection analysis. The test results were compared with the initial test results on day 0.

[4] = Pharmacokinetic evaluation in male CD-1 mice (IV 0.5 mg/kg, PO 2 mg/kg), plasma LC/MS/MS; type: in vivo
Procedure: Assay purpose: The pharmacokinetic properties of the compounds of the present disclosure were studied in mice.
Each assay compound was mixed with DMAC respectively, and vortexed for 2 minutes. The solution of the assay compound in DMAC was mixed and vortexed for 2 minutes to prepare a clear solution of 10 mg/mL. 0.0600 mL of 10 mg/mL solution was added to 0.300 mL of Solutol, and the mixture was vortexed for 2 minutes. Then 2.400 mL of normal saline was added, and the mixture was vortexed for 2 minutes to obtain a clear solution of 0.2 mg/mL, which was used for administration in PO group. 0.500 mL of the solution for administration in PO group was vortexed for 2 minutes, and 0.0500 mL of DMAC was added. The mixture was vortexed for 2 minutes, and then 0.0500 mL of solutol was added. The mixture was vortexed for 2 minutes, and finally 0.400 mL of normal saline was added. The mixture was vortexed for two minutes to give a clear solution of 0.1 mg/mL, which was filtered through a microporous membrane to give a solution for administration in injection (IV) group.
Four male CD-1 mice were divided into two groups. The animals in the first group were administered intravenously once at a dose of 0.5 mg/kg, wherein the vehicle was 10% DMAC/10% Solutol/80% normal saline, and the administration volume was 5 mL/kg. The animals in the second group were administered orally 2 mg/kg of the assay compound by oral gavage, wherein the oral vehicle was 10% DMAC/10% Solutol/80% normal saline, and the oral volume was 10 mL/kg. Whole blood was collected at 0.033 (IV injection only), 0.083, 0.25, 0.5, 1, 2, 4 and 12 hours post-dose. The whole blood was centrifuged at 3200 g at 2-8 °C for 10 min to obtain plasma. The concentration of the assay compound in plasma was determined by LC/MS/MS method, and the pharmacokinetic parameters were calculated by Phoenix WinNonlin software.
The parameters have the following meanings: IV: intravenous injection; PO: oral administration; C0: initial plasma concentration; Cmax: maximum drug concentration in the systemic circulation; Tmax: time required to reach Cmax; T1/2: half-life; Vdss: apparent volume of distribution; Cl: clearance rate; AUC0-last: area under the plasma drug concentration-time curve.

[5] = Accelerated (40 °C, 75% relative humidity, uncovered), 1 month
[6] = Accelerated (40 °C, 75% relative humidity, uncovered), 2 months
[7] = Accelerated (40 °C, 75% relative humidity, uncovered), 3 months
[8] = Light-shielding control group, placed with visible light + UV light, wrapped with tin foil
[9] = Long term (25 °C, 60% relative humidity, uncovered), 3 months
[10] = High humidity (25 °C, 92.5% relative humidity, uncovered), 10 days
[11] = High temperature (60 °C, uncovered), 10 days
[12] = Visible light + UV (ICH conditions), total illumination of visible light reaching 1200000 Lux·h, UV reaching 200 w·h/m^2

hygroscopicity [1]: slightly hygroscopic (2%>ΔW %≥0.2%) | ΔW % ([1]; DVS): 0.535% | Crystal form ([2]; 0 day (initial)): form B | Crystal form [2, 5]: form B | Purity (HPLC) [2, 5]: 99.4% | Crystal form [2, 6]: form B | Purity (HPLC) [2, 6]: 99.4% | Crystal form [2, 7]: form B | Purity (HPLC) [2, 7]: 99.4% | Crystal form [2, 8]: form B | Purity (HPLC) [2, 8]: 99.4% | Crystal form [2, 9]: form B | chemical stability ([2]; conclusion in words, all stability conditions): good chemical stability | Purity (HPLC) ([3]; 0 day (initial)): 99.4% | Crystal form [3, 10]: form B | Purity (HPLC) [3, 10]: 99.4% | Crystal form [3, 11]: form B | Purity (HPLC) [3, 11]: 99.4% | Purity (HPLC) [3, 9]: 99.4% | Crystal form [3, 12]: form B | Purity (HPLC) [3, 12]: 99.4% | change of purity and crystalline form ([3]; all stability conditions (high temperature, high humidity, illumination, long-term and accelerated)): did not change significantly
SMILES: O=C(O)c1scc2[nH]c(=O)n(-c3cc4c(cc3F)OCCCOc3ccc(F)c(F)c3CO4)c(=O)c12

AUC0-last ([4]; IV (0.5 mg/kg)): 48.307 µM·h | Cl (clearance rate) ([4]; IV (0.5 mg/kg)): 0.332 mL/min/kg | T1/2 ([4]; IV (0.5 mg/kg)): 5.66 h | Vdss (apparent volume of distribution) ([4]; IV (0.5 mg/kg)): 0.159 L/kg | C0 ([4]; IV (0.5 mg/kg), read-out: C0 (initial plasma concentration)): 13.5 µM | AUC0-last ([4]; PO (2 mg/kg)): 142.824 µM·h | Bioavailability ([4]; PO (2 mg/kg)): 95.3% | Cmax ([4]; PO (2 mg/kg)): 25.8 µM | T1/2 ([4]; PO (2 mg/kg)): 5.03 h | Tmax ([4]; PO (2 mg/kg)): 30 min
SMILES: O=C(O)c1scc2[nH]c(=O)n(-c3cc4c(cc3F)OCCCOc3ccc(F)c(F)c3CO4)c(=O)c12 [Compound of formula (I)]
